Test [1] concerns lettuce (Lactuca sativa) cv. Northern Lakes seedlings. Briefly: Root growth bioassay of germinating lettuce seedlings. The format is in vivo. The conditions noted are these: lettuce seedling assay (L), 10^-6 M. How it is done:
(§1) Applicants' preferred embodiments of this invention comprises the incorporation of structural peptide backbone changes which increase conformational constraint, and vary the orientation of amino acid side chains when constrasted with naturally occurring amino acid sequences. […] Rooth growth inhibition/promotion was measured in germinating lettuce (Lactuca sativa) cv. Northern Lakes and curly cress (Lepidium sativum) seedling assays nominally used for screening herbicidal compounds and in a wheat coleoptile assay used for generally screening biological activity. Only compounds exerting measurable biological activities at 1×10^-6 M in concentration in the lettuce and cress assays and 1×10^-3 M in the wheat coleoptile are claimed.
(§2) Aliquots of tested oligopeptide compounds of the type Formulas I-V were dissolved in ethyl acetate. One milliliter aliquots of the samples were pipetted onto a […] filter disk, dried, and placed in a Petri dish. One mL of distilled water was pipetted onto the filter paper and 15 lettuce seeds were uniformly distributed on the surface of the filter paper and allowed to imbibe in the dark at 20° to 25° C. for 24 h. The samples were subsequently placed in a growth chamber under continuous light at 28° C. for 72 h, and the root lengths were measured.
(§3) During the course of these assays, visual assessment of seedling vigor was made in addition to root length measurements. […] Assessment of phytotoxicity was not confined to assessment of the root, but included any organ of the assay species.

Test [2] concerns curly cress (Lepidium sativum) seedlings. Briefly: Root growth bioassay of germinating curly cress seedlings. The conditions noted are these: curly cress seedling assay (C), 10^-6 M. The format is in vivo. The method, then:
as §1, §2, §3

Test [3] deals with lettuce and cress seedlings. Briefly: Lettuce and curly cress seedling assays, visual assessment and overall activity (species not split). The format is in vivo, Lactuca sativa; Lepidium sativum. Also noted: key to Phytotoxicity: +: designated as phytotoxic if they exhibited either chlorosis and/or necrosis of tissues when compared with untreated control plants. Conditions: for Root growth inhibitor or promoter activity (in words): 10^-6 M; for Phytotoxicity: visual assessment of chlorosis and/or necrosis, any organ; for Phytotoxic properties observed (in words): visual assessment of seedlings. How it is done: as §1, §2, §3

In test [4] the test system is lettuce, potato, cucumber, spinach, radish, corn, tobacco. The conditions noted are these: literature; cited from earlier work.
In test [5] the test system is susceptible maize hybrids. The conditions noted are these: literature; cited from earlier work.

For the compound `CCN(C(=O)[C@@H](CC(C)C)NC(=O)OC(C)(C)C)/C(=C\c1ccccc1)C(=O)NCC(=O)OC` [Compound 7, Boc-D-Leu-N(C2 H5)Δ^z Phe-Gly-OMe], the “% Root Growth Inhibitor (inhibition)” value in test [1] was 50%; in test [2], 80%.
For `COC(=O)CNC(=O)/C(=C/c1ccccc1)N(C)C(=O)[C@H](CC(C)C)NC(=O)OC(C)(C)C` [Compound 8, Boc-Leu-N(CH3)Δ^z Phe-Gly-OMe], the “% Root Growth Inhibitor (inhibition)” value is listed as 60% in test [1] and 50% in test [2].
The like results for `COC(=O)CNC(=O)/C(=C/c1ccccc1)NC(=O)[C@@H](C)NC(=O)OC(C)(C)C` [Compound 10, Boc-D-Ala-Δ^z Phe-Gly-OMe] were, in that order, 40% and 20%.
Take `COC(=O)CNC(=O)/C(=C/c1ccccc1)N(C)C(=O)[C@@H](NC(=O)OC(C)(C)C)C(C)C` [Compound 12, Boc-Val-N(CH3)Δ^z Phe-Gly-OMe]: the “% Root Growth Inhibitor (inhibition)” value in test [2] turned out to be 85%.
For the compound `CC(C)C[C@@H]1NC(=O)[C@H](C)N(C)C(=O)CNC(=O)/C(=C/c2ccccc2)N(C)C1=O` [Compound 13, cyclo [L-Leucyl-N-methyl-(Z)-dehydrophenylalanyl-glycyl-N-methyl-L-alnyl]], in test [3], the “Root growth inhibitor or promoter activity (in words)” value was “Not active as a inhibitor”, the Phytotoxicity entry is on record as “+” and the “Phytotoxic properties observed (in words)” value was “induces chlorosis in lettuce seedlings”. Moreover, the “Root growth inhibitor or promoter activity (in words)” value in test [3] (listed as tentoxin) was “none of the plant growth inhibiting or promoting properties”. Moreover, the Chlorosis induction entry in test [4] was “induces chlorosis in lettuce, potato, cucumber and spinach but not in radish, corn and some species of tobacco”.
Regarding `C[C@@H]1NC(=O)[C@H]2CCCN2C(=O)[C@H](CCCCCC(=O)[C@@H]2CO2)NC(=O)[C@@H](C)NC1=O` [HC toxin], the Root growth inhibition entry in test [5] is reported as “root growth inhibition of susceptible maize hybrids”.
In the case of “Boc-N(CH3)-Ala-Leu-N(CH3)Δ^z Phe-Gly-OMe [Compound 5]”, in test [3], the “Root growth inhibitor or promoter activity (in words)” value was “active”, the Phytotoxicity entry was “+” and the “Phytotoxic properties observed (in words)” value is reported as “root growth inhibition leading to early mortality”.

The record behind these values is US4735651A, “Novel phytotoxic and plant growth regulating oligopeptide” (The United States of America as represented by the …, priority 1986, dated 1988).
